Test results as given in the NIST ThermoML archive (doi:10.1016/j.tca.2018.10.003).
± gives the expanded uncertainty stated by the source.

Settings: Crystal; DSC

Triple point temperature: 377.75 ± 4.1 K
Compound: O=C(OOC(=O)c1ccccc1)c1ccccc1 [benzoyl peroxide]
